# Test results reported in paper PMC10816640, “Discovery of Novel Diphenyl Acrylonitrile Derivatives That Promote Adult Rats’ Hippocampal Neurogenesis” (International Journal of Molecular Sciences, 2024).
# “And” between values parts separate entries of the source, which are not always exact repeats. Equal values may be shown once. Marks after values point to notes of the source that are not given here.
# Assays:
# [1] = Pharmacokinetic study, plasma; type: in vivo, SD rats; conditions: rat blood/plasma, 4 mg/kg i.p.
# Procedure: (§1) The SD rats (approximately 200 g) were randomly assigned to eight groups, with each group comprising three rats. All experimental procedures were carried out in accordance with the ethical guidelines outlined by the Ethics Committee of the Beijing Institute of Technology. The administration medium consisted of a combination of 5% dimethyl sulfoxide (DMSO) and 95% soybean oil. The drug was administered intraperitoneally at a dose of 4 mg/kg. Prior to the experiment, the experimental animals were subjected to a 12 h fasting period with free access to water. Following drug administration, blood samples were collected from the rat’s orbital vein at predetermined time points. The collected blood was then placed in sodium heparin anticoagulation tubes. The rats were euthanized, and their brain tissues were carefully extracted and loaded into 5 mL EP tubes. The collection time points for plasma and brain tissue samples were as follows: 0 min, 15 min, 30 min, 1 h, 2 h, 4 h, 8 h, and 24 h. Within 2 h after collection, the blood samples were centrifuged at 6000 rpm for 10 min at a temperature of 4 °C. The resulting samples were then stored in a −20 °C refrigerator.
# (§2) Tissue samples were first weighed and homogenized to ensure consistent testing conditions. The determination of original compound concentrations in plasma and tissue homogenates was performed using LC-MS/MS. Specifically, 50 μL of plasma or tissue samples were mixed with 50 μL of propranolol and 100 μL of acetonitrile for protein precipitation. The resulting mixture was then centrifuged at 12,000 rpm for 5 min, and the supernatant was diluted and analyzed through LC-MS/MS. The liquid chromatography was conducted on a Thermo Scientific Q Exactive HF-X instrument (Thermo Fisher Scientific, Waltham, MA, USA), employing an ACQUITY UPLC BEH C18 Column with dimensions of 130 Å, 1.7 µm, 2.1 mm × 100 mm. Additionally, a pre-column equipped with an ACQUITY UPLC BEH C18 VanGuard Pre-Column (130 Å, 1.7 µm, 2.1 mm × 5 mm) was utilized. The liquid phase method employed gradient elution with mobile phases consisting of acetonitrile and a 0.1% formic acid aqueous solution. Mass spectrometry was conducted in positive ion mode. The quantification of drug concentration in plasma samples was performed using the internal standard method, and the obtained pharmacokinetic parameters were calculated using Phoenix WinNonlin 7.0 software.
# [2] = Pharmacokinetic study, brain tissue distribution; type: in vivo, SD rats; conditions: 4 mg/kg i.p.
# Procedure: as §1
# as §2, with “Additionally, a pre-column equipped with an ACQUITY UPLC BEH C18 VanGuard Pre-Column (130 Å, 1.7 µm, 2.1 mm × 5 mm) was utilized. The liquid phase method employed gradient elution with mobile phases consisting of acetonitrile and a 0.1% formic acid aqueous solution. Mass spectrometry was conducted in positive ion mode.” left out
# [3] = system: newborn cells in the subgranular zone; experiment: BrdU+ newborn cells, rats sacrificed 28 days after BrdU; type: in vivo, rat; conditions: nine-week-old rats (n = 2), i.p. 4.0 mg/kg/day for 28 days, BrdU pulse, Figure 7A
# Procedure: The study employed a rat model, wherein nine-week-old rats were administered intraperitoneally with the compound at a dose of 4.0 mg/kg/day for 28 days and then treated with a pulse of BrdU. Instead of sacrificing the rats 24 h after the BrdU injections, the rats were sacrificed after another 28 days. The brains were then isolated and cryosectioned. Eight randomly selected slices were subjected to immunohistochemical staining. This staining enabled the co-localization of the BrdU-incorporated cells with the NeuN marker, enabling the definition of the compounds that could promote the differentiation of newborn neural progenitor cells into mature functional neurons. The compounds were dissolved in reagent-grade soybean oil containing 10% ethanol to reach a drug concentration of 2.8 mg/mL. The rats in the experimental group received intraperitoneal injections of the compounds at a dose of 4.0 mg/kg/d for 28 consecutive days. As a control, the vehicle group was administered injections of reagent-grade soybean oil containing 10% ethanol. BrdU (Sigma-Aldrich, St. louis, MA, USA) solution, prepared in physiological saline at a concentration of 10 mg/mL, was administered to all rats on day 29. Each rat received two injections of BrdU at a dosage of 50 mg/kg, with a 2 h interval between injections. The rats were euthanized 24 h (or 28 days) after the final BrdU injection. Two or four rats per group were anesthetized using pentobarbital sodium (70 mg/kg) and subsequently perfused with physiological saline. The brain tissue was carefully dissected and fixed in 4% paraformaldehyde at 4 °C for one week. Next, the brain tissue underwent dehydration using a phosphate-buffered saline (PBS) solution containing 20% to 30% sucrose. Finally, the brain tissue was cryosectioned into slices with a thickness of 30 μm, and eight slices were randomly selected for further analysis. The assessment of new cell proliferation was conducted using BrdU staining. To eliminate endogenous peroxides, sections were exposed to 1% H2O2 for 30 min at RT. Cellular denaturation was achieved by treating the sections with 2 M HCl at 37 °C for 1 h, followed by rinsing in 0.1 M borate buffer (pH 8.5). Tissue sections were subjected to blocking in a solution consisting of 5% goat serum and 0.5% Triton X-100 in PBS at RT for 1–2 h. The specimens were then incubated overnight at 4 °C with a mouse primary antibody specific to BrdU (diluted at 1:500; Millipore, Billerica, MA, USA). Subsequently, the DAB kit was employed for 2 h of incubation at RT. The differentiation process of NPCs was visualized through the utilization of the NeuN/BrdU double staining technique. Tissue sections were subjected to an incubation period in a blocking buffer at RT for 1 to 2 h. The specimens were exposed to a rabbit anti-NeuN antibody (diluted at 1:500, Abcam, Cambridge, MA, UK) and a primary antibody, BrdU (diluted at 1:500), overnight at 4 °C. Afterwards, the sections were treated with anti-mouse 488 and anti-rabbit TRITC secondary antibodies for 2 h at RT. The data were presented as mean ± SEM (standard error of the mean) and visualized using GRAPHPAD PRISM 6 (Graphpad Software, La Jolla, CA, USA). Statistical analysis was conducted utilizing one-way analysis of variance (ANOVA) followed by a post hoc test. Subsequent to the statistical treatment, the observed discrepancies were determined to be statistically significant (p < 0.05).
smiles,measurement,setting,value
"CC(C)C(=O)Nc1ccc(/C=C(\C#N)c2ccc3c(c2)OCO3)cc1 [32b, (Z)-N-(4-(2-(benzo[d][1, 3]dioxol-5-yl)-2-cyanovinyl)phenyl)isobutyramide]",AUC0–inf,[1],385 ± 82.3 ng·h/mL
same,CL,[1],"10,770 ± 2616 mL/h/kg"
same,MRT,[1],2.46 ± 0.14 h
same,T1/2,[1],2.23 h
same,Tmax,[1],1.5 h
same,Vz,[1],"32,829 ± 4581 mL/kg"
same,AUC0–24h,[1]; n = 3,383 ± 84.4 ng·h/mL
same,Cmax,[1]; n = 3,132 ± 9 ng/mL
same,Cmax,"[2]; rat brain tissue, n = 3",168 ± 47 ng/g
same,AUC0–24h,"[2]; rat brain tissue, n = 3, 4 mg/kg",608 ng·h/g and 608 ± 220 ng·h/g
same,Ratio = Cmax of Brain/Cmax of Blood,[2]; rat,1.28 ^a
"CC(C)C(=O)Nc1ccc(/C(C#N)=C/c2ccc3c(c2)OCO3)cc1 [29b, (Z)-N-(4-(2-(benzo[d][1, 3]dioxol-5-yl)-1-cyanovinyl)phenyl)isobutyramide]",proliferative activity over the longer 28 day period (number of BrdU+ cells),[3],could promote the proliferation of progenitors
